{"source": "patent US10145848B2", "about": "“Small-molecule hydrophobic tagging of fusion proteins and induced degradation of same” (YALE UNIVERSITY, priority 2010, dated 2018)", "test_system": "NIH-3T3 cells infected with HA-HaloTag(D106A)-H-RasG12V", "assay": "Focus formation assay, HA-HaloTag(D106A)-H-RasG12V cells", "type": "cell-based, mouse", "settings": "1 μM, 1% FBS, day 6", "experimental": "One hundred thousand NIH-3T3 cells infected with HA-HaloTag-H-RasG12V and HA-HaloTag(D106A)-H-RasG12V were plated onto 10-cm cell culture plates in 10% FBS with DMEM. The next day, the media was replaced with 1% FBS media and the cells were administered either vehicle or 1 μM HyT13. The media and the drug were replaced every two days. On day 6, the foci were photographed and counted as the number of distinct foci per 1-cm^2 area.\nWe next explored the functional utility of HaloTag-based degradation of an oncogene by HyT13 both in cell culture and in mice. The small GTPase H-Ras is one of the most commonly mutated genes in cancer, with up to […] of cancers harboring activating mutations in this gene^35. Activating mutations, such as the H-RasG12V allele, lead to decreased dependence on extracellular mitogenic signals. […] When H-RasG12V expressing cells are grown in culture under low serum conditions they lose cell-to-cell contact inhibition and form distinct foci instead of growing as a cellular monolayer. Furthermore, these transformed cells are capable of tumor formation when injected into immuno-compromised nude mice^36,37. We investigated whether (1) HaloTag-H-RasG12V driven focus formation can be suppressed in NIH-3T3 cells and (2) HaloTag-H-RasG12V driven tumor burden in mice can be reduced by administration of HyT13. […]"}
{"smiles": "O=C(CC12CC3CC(CC(C3)C1)C2)NCCOCCOCCCCCCCl", "note": "[HyT13, 2-((3r,5r,7r)-Adamantan-1-yl)-N-(2-(2-((6-chlorohexyl)oxy)ethoxy)ethyl)acetamide]", "values": [{"measurement": "focus formation", "value": "had formed many foci"}]}
